Active and inactive are the calls of the source. The rule behind the calls is not given here.
Legend:
Acetylcholinesterase = Acetylcholinesterase (Homo sapiens, UniProt P22303); assay: Inhibition of human erythrocyte AChE using acetylthiocholine iodide as substrate preincubated for 30 mins followed by substrate addition by DTNB based Ellman's colorimetric method
Cholinesterase = Cholinesterase (Homo sapiens, UniProt P06276); assay: Inhibition of human BChE using butyrylthiocholine iodide as substrate preincubated for 30 mins followed by substrate addition by DTNB based Ellman's colorimetric method
[1] = target: Dual specificity tyrosine-phosphorylation-regulated kinase 1A (Homo sapiens, UniProt Q13627); assay: Inhibition of Dyrk1A (unknown origin) incubated for 1 hrs in presence of [gamma-33P]-ATP by microplate scintillation counter based radiometric protein kinase assay
Beta-secretase 1 = Beta-secretase 1 (Homo sapiens, UniProt P56817); assay: Inhibition of human BACE-1 using (7-Methoxycoumarin-4-acetyl-[Asn670, Leu671]-Amyloid beta/A4 precursor protein 770 fragments 667-676- (2, 4-dinitrophenyl) Lys-Arg-Arg amide trifluoroacetate salt as substrate incubated for 2 hrs by FRET-based analysis
[2] = Permeability of compound in PBS at pH 7.4 incubated for 18 hrs by PAMPA-BBB assay
[3] = Neurotoxicity in human SH-SY5Y cells assessed as reduction in cell population at 80 uM incubated for 24 hrs by MTT assay
SH-SY5Y [4] = assay: (§1) Neuroprotective activity against amyloid-beta(1 to 42) induced oxidative stress in differentiated human SH-SY5Y cells assessed as increase in cell viability at 40 uM preincubated with amyloid-beta (1 to 42 ) for 24 hrs followed by compound addition and measured after 48 hrs by MTT assay relative to control; type: functional
SH-SY5Y [5] = assay: as §1, with “72” for “48”; type: functional
[6] = target: Amyloid-beta precursor protein (Homo sapiens) (UniProt P05067); assay: Inhibition of amyloid beta (1 to 42) (unknown origin) self aggregation ar 5 to 20 uM incubated for 48 hrs by Thioflavin T fluorescence assay relative to control; conditions: dose 5-20 µM
[7] = target: Amyloid-beta precursor protein (Homo sapiens) (UniProt P05067); assay: Inhibition of human AchE-induced amyloid beta (1 to 42) (unknown origin) aggregation at 5 to 20 uM incubated for 48 hrs by Thioflavin T fluorescence assay relative to control; conditions: dose 5-20 µM
Rattus norvegicus [8] = assay: Antialzheimer activity against scopolamine-induced amnesia in male Wistar rat model assessed as restoration of memory function by measuring percentage spontaneous alteration at 5 mg/kg, po preadministered with compound for 30 mins starting from 7 th day trail followed by scopolamine administration and measured after 5 mins by Y maze test; type: functional, organism-based; conditions: time 35.0 min
Rattus norvegicus [9] = assay: Antialzheimer activity against scopolamine-induced amnesia in male Wistar rat model assessed as increase in total arm enteries at 5 mg/kg, po preadministered with compound for 30 mins starting from 7 th day trail followed by scopolamine administration and measured after 5 mins by Y maze test; type: functional, organism-based; conditions: time 35.0 min
Rattus norvegicus [10] = assay: Reversal of amyloid beta (1 to 42 residues) induced cognitive impairment in Wistar rat assessed as reduction in escape latency time at 5 mg/kg, po pretreated with amyloid beta for 7 days followed by compound administration for 9 days and measured after 1 days by Morris water maze test; type: functional, organism-based; conditions: time 10.0 day
Rattus norvegicus [11] = assay: Reversal of amyloid beta (1 to 42 residues) induced cognitive impairment in Wistar rat assessed as increase in platform crossings at 5 mg/kg, po pretreated with amyloid beta for 7 days followed by compound administration for 9 days and measured after 1 days by Morris water maze test; type: functional, organism-based; conditions: time 10.0 day
Rattus norvegicus [12] = assay: (§2) Reversal of amyloid beta (1 to 42 residues) induced cognitive impairment in Wistar rat assessed as reduction in escape latency time at 5 mg/kg, po pretreated with amyloid beta for 7 days followed by compound administration for 9 days and measured after 5 days by Morris water maze test; type: functional, organism-based; conditions: time 14.0 day
Rattus norvegicus [13] = assay: Reversal of amyloid beta (1 to 42 residues) induced cognitive impairment in Wistar rat assessed as increase in platform crossings at 5 mg/kg, po pretreated with amyloid beta for 7 days followed by compound administration for 9 days and measured after 5 days by Morris water maze test; type: functional, organism-based; conditions: time 14.0 day
Rattus norvegicus [14] = assay: as §2, with “focal gliosis in cerebral cortex” for “escape latency time”, “Nissl's staining based analysis” for “Morris water maze test”; type: functional, organism-based; conditions: time 14.0 day
Rattus norvegicus [15] = assay: as §2, with “neural dispersion at DG region in hippocampus” for “escape latency time”, “Nissl's staining based analysis” for “Morris water maze test”; type: functional, organism-based; conditions: time 14.0 day
Rattus norvegicus [16] = assay: as §2, with “appearance of pyknotic neuron bodies in hippocampus” for “escape latency time”, “Nissl's staining based analysis” for “Morris water maze test”; type: functional, organism-based; conditions: time 14.0 day
Rattus norvegicus [17] = assay: (§3) Reversal of amyloid beta (1 to 42 residues) induced cognitive impairment in Wistar rat assessed as decrease in BACE-1 protein level at 5 mg/kg, po pretreated with amyloid beta for 7 days followed by compound administration for 9 days and measured after 5 days by Western blot analysis; type: functional, organism-based; conditions: time 14.0 day
Rattus norvegicus [18] = assay: Reversal of amyloid beta (1 to 42 residues) induced cognitive impairment in Wistar rat assessed as decrease in alpha-synuclein protein level at 5 mg/kg, po pretreated with amyloid beta for 7 days followed by compound administration for 9 days and measured after 5 days by Western blot analysis; type: functional, organism-based; conditions: time 14.0 day
Rattus norvegicus [19] = assay: Reversal of amyloid beta (1 to 42 residues) induced cognitive impairment in Wistar rat assessed as decrease in APP protein level at 5 mg/kg, po pretreated with amyloid beta for 7 days followed by compound administration for 9 days and measured after 5 days by Western blot analysis; type: functional, organism-based; conditions: time 14.0 day
Rattus norvegicus [20] = assay: Reversal of amyloid beta (1 to 42 residues) induced cognitive impairment in Wistar rat assessed as decrease in Tau protein level at 5 mg/kg, po pretreated with amyloid beta for 7 days followed by compound administration for 9 days and measured after 5 days by Western blot analysis; type: functional, organism-based; conditions: time 14.0 day
Rattus norvegicus [21] = assay: as §3, with “BACE-1” for “BACE-1 protein”, “level in DG region of hippocampus” for “level”, “immuno histochemical” for “Western blot”; type: functional, organism-based; conditions: time 14.0 day
Rattus norvegicus [22] = assay: as §3, with “BACE-1” for “BACE-1 protein”, “level in CA1 region of hippocampus” for “level”, “immuno histochemical” for “Western blot”; type: functional, organism-based; conditions: time 14.0 day
Rattus norvegicus [23] = assay: as §3, with “BACE-1” for “BACE-1 protein”, “level in CA3 region of hippocampus” for “level”, “immuno histochemical” for “Western blot”; type: functional, organism-based; conditions: time 14.0 day
Rattus norvegicus [24] = assay: as §3, with “amyloid-beta” for “BACE-1 protein”, “level in DG region of hippocampus” for “level”, “immuno histochemical” for “Western blot”; type: functional, organism-based; conditions: time 14.0 day
Rattus norvegicus [25] = assay: as §3, with “amyloid-beta” for “BACE-1 protein”, “level in CA1 region of hippocampus” for “level”, “immuno histochemical” for “Western blot”; type: functional, organism-based; conditions: time 14.0 day
Rattus norvegicus [26] = assay: as §3, with “amyloid-beta” for “BACE-1 protein”, “level in CA3 region of hippocampus” for “level”, “immuno histochemical” for “Western blot”; type: functional, organism-based; conditions: time 14.0 day
[27] = target: Amyloid-beta precursor protein (Homo sapiens) (UniProt P05067); assay: Inhibition of amyloid beta (1 to 42) (unknown origin) aggregation assessed as maximum peak height of aggregates incubated for 48 hrs by AFM analysis
[28] = target: Amyloid-beta precursor protein (Homo sapiens) (UniProt P05067); assay: Inhibition of amyloid beta (1 to 42) (unknown origin) aggregation assessed as reduction in amyloid-beta aggregates at 50 uM incubated for 48 hrs by TEM analysis
[29] = target: Amyloid-beta precursor protein (Homo sapiens) (UniProt P05067); assay: Inhibition of amyloid beta (1 to 42) (unknown origin) aggregation assessed as appearance of thinner aggregates at 50 uM incubated for 48 hrs by TEM imaging analysis
[30] = target: Amyloid-beta precursor protein (Homo sapiens) (UniProt P05067); assay: Inhibition of amyloid beta (1 to 42) (unknown origin) aggregation assessed as reduction in size of amyloid-beta aggregates measured within 48 hrs by SEM imaging analysis

Sequence of Beta-secretase 1 (P56817 whole entry, the tested form may be a part): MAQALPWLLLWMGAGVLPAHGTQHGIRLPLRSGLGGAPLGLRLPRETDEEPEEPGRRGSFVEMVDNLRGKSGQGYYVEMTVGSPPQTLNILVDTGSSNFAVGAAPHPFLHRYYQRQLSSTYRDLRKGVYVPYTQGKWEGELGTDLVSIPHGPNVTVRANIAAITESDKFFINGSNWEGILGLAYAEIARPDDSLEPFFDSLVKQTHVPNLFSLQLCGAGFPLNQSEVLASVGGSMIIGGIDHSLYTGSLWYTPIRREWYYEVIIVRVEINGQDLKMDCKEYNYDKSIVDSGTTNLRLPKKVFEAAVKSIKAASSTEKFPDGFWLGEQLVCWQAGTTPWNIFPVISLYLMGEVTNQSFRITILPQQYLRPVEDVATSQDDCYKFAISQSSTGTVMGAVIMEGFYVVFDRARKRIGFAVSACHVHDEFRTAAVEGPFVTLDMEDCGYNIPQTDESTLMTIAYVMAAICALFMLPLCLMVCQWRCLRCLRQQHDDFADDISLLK
Sequence of Acetylcholinesterase (P22303 whole entry): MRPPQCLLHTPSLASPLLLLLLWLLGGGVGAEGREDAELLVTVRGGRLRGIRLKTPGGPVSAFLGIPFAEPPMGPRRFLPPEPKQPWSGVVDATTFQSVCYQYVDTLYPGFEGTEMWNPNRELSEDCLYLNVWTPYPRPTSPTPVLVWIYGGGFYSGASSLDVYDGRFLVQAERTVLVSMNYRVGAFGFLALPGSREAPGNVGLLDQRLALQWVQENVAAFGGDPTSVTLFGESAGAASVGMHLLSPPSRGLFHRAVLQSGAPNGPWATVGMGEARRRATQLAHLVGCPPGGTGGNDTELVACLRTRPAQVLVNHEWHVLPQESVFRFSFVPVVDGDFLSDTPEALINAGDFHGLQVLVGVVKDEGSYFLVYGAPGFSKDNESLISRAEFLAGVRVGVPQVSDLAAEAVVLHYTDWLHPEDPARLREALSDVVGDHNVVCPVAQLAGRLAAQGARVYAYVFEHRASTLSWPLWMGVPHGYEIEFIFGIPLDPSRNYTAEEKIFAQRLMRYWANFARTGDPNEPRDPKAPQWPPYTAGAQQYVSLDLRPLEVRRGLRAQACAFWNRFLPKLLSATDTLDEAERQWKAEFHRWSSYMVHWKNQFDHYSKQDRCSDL
Sequence of Cholinesterase (P06276 whole entry): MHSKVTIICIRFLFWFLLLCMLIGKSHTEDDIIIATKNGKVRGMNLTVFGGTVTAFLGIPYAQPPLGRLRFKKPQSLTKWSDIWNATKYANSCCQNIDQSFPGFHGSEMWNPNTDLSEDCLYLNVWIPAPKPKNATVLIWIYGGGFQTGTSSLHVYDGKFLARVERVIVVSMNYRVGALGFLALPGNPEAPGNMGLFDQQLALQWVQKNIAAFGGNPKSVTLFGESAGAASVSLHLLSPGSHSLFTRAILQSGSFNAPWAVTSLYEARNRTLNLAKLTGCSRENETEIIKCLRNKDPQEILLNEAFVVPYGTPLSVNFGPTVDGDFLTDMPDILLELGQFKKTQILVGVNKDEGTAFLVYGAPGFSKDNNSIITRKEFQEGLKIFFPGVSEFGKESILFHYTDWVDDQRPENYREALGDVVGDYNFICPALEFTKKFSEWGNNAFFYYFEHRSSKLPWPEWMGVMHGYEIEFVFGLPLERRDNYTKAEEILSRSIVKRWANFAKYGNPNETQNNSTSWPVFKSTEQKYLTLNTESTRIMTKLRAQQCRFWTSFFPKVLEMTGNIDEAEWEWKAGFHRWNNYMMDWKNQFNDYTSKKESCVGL
Sequence of Amyloid-beta precursor protein (Homo sapiens) (P05067 whole entry): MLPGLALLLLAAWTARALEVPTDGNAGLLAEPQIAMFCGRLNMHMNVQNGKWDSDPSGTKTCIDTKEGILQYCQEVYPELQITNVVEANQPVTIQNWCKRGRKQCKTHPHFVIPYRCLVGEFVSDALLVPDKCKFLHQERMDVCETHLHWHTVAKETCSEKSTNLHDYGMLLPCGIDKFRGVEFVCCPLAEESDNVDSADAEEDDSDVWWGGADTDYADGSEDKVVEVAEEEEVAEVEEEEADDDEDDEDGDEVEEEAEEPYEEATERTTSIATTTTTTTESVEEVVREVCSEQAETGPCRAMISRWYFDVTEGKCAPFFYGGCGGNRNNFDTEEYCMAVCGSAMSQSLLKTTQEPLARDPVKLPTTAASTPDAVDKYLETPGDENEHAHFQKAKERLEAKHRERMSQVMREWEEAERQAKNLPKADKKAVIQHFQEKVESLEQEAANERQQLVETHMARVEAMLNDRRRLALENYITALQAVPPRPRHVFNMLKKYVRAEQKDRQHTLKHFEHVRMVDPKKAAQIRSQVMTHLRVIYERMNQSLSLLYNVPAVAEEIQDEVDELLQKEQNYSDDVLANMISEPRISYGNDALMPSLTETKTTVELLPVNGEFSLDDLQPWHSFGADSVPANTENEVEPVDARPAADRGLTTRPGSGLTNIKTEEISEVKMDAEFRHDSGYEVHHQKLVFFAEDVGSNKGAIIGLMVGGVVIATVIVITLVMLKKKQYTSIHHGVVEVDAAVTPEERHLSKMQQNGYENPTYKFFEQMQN

SMILES	IC50 (Acetylcholinesterase) [nM]	IC50 (Cholinesterase) [nM]	IC50 [1] [nM]	IC50 (Beta-secretase 1) [nM]	also measured
COc1cc(NC(=O)Cn2nc(-c3ccccc3)c(-c3ccccc3)nc2=O)cc(OC)c1OC	708	> 10000	> 10000	648	Papp at 18 h [2]: 5.81 ×10⁻⁶ cm/s; Activity [3]: Non-Toxic; Activity (SH-SY5Y [4]): 71%; Activity (SH-SY5Y [5]): 78%; inhibition [6]: 19.3%; inhibition [7]: 33.6%
O=C(Cn1nc(-c2ccccc2)c(-c2ccccc2)nc1=O)Nc1cccc([N+](=O)[O-])c1	1120	> 10000	> 10000	1250	
O=C(Cn1nc(-c2ccccc2)c(-c2ccccc2)nc1=O)Nc1ccccc1O	753	> 10000	> 10000	953	
O=C(Cn1nc(-c2ccccc2)c(-c2ccccc2)nc1=O)Nc1ccc([N+](=O)[O-])cc1	1070	> 10000	> 10000	1320	
N#Cc1ccccc1NC(=O)Cn1nc(-c2ccccc2)c(-c2ccccc2)nc1=O	1860	> 10000	> 10000	1480	
O=C(Cn1nc(-c2ccccc2)c(-c2ccccc2)nc1=O)Nc1cccc(Cl)c1	1160	> 10000	> 10000	1440	
COc1cc2c(cc1OC)C(=O)C(CC1CCN(Cc3ccccc3)CC1)C2 (centres undefined) [DONEPEZIL]					Activity [3]: Non-Toxic; Activity (Rattus norvegicus [8]): Active; Activity (Rattus norvegicus [9]): Active; Activity (Rattus norvegicus [10]): inactive; Activity (Rattus norvegicus [11]): inactive; Activity (Rattus norvegicus [12]): Active; Activity (Rattus norvegicus [13]): Active; Activity (Rattus norvegicus [14]): Active; Activity (Rattus norvegicus [15]): Active; Activity (Rattus norvegicus [16]): Active; Activity (Rattus norvegicus [17]): Active; Activity (Rattus norvegicus [18]): Active; Activity (Rattus norvegicus [19]): Active; Activity (Rattus norvegicus [20]): Active; Activity (Rattus norvegicus [21]): Active; Activity (Rattus norvegicus [22]): Active; Activity (Rattus norvegicus [23]): Active; Activity (Rattus norvegicus [24]): Active; Activity (Rattus norvegicus [25]): Active; Activity (Rattus norvegicus [26]): Active
N#Cc1cccc(NC(=O)Cn2nc(-c3ccccc3)c(-c3ccccc3)nc2=O)c1	1250	> 10000	> 10000	1100	
O=C(Cn1nc(-c2ccccc2)c(-c2ccccc2)nc1=O)Nc1cc(Br)cc(Br)c1	772	> 10000	> 10000	1250	
O=C(Cn1nc(-c2ccccc2)c(-c2ccccc2)nc1=O)Nc1ccc(Cl)cc1	1410	> 10000	> 10000	1930	
O=C(Cn1nc(-c2ccccc2)c(-c2ccccc2)nc1=O)Nc1ccccc1Cl	719	> 10000	> 10000	609	
O=C(Cn1nc(-c2ccccc2)c(-c2ccccc2)nc1=O)Nc1ccccc1[N+](=O)[O-]	734	> 10000	> 10000	912	
Cc1ccccc1NC(=O)Cn1nc(-c2ccccc2)c(-c2ccccc2)nc1=O	953	> 10000	> 10000	742	
O=C(Cn1nc(-c2ccccc2)c(-c2ccccc2)nc1=O)Nc1ccc(F)cc1F	1160	> 10000	> 10000	1440	
COc1cc(/C=C/C(=O)CC(=O)/C=C/c2ccc(O)c(OC)c2)ccc1O					inhibition [6]: 21.5%; Activity [27]: 206 nm; inhibition [28]: Active; inhibition [29]: Active; inhibition [30]: Active
O=C(Cn1nc(-c2ccccc2)c(-c2ccccc2)nc1=O)Nc1ccc(Br)cc1	941	> 10000	> 10000	1860	
O=C(Cn1nc(-c2ccccc2)c(-c2ccccc2)nc1=O)Nc1ccc([N+](=O)[O-])cc1Cl	699	> 10000	2000	1830	
O=C(Cn1nc(-c2ccccc2)c(-c2ccccc2)nc1=O)Nc1ccc(O)cc1	1150	> 10000	> 10000	1620	
O=C(Cn1nc(-c2ccccc2)c(-c2ccccc2)nc1=O)Nc1ccc(F)cc1	836	> 10000	> 10000	694	

— ChEMBL document CHEMBL5500364, “Design, synthesis, and biological evaluation of some 2-(3-oxo-5,6-diphenyl-1,2,4-triazin-2(3H)-yl)-N-phenylacetamide hybrids as MTDLs for Alzheimer's disease therapy” (Eur J Med Chem, 2024)
